This assay relates to diabetic rats exhibiting contrast-induced nephropathy. Kind of assay: Contrast-induced nephropathy (CIN) model in streptozotocin-diabetic rats, contrast agent iomeprol. It counts as in vivo, Male Wistar rats. As for the experimental part: Effect of Tetracyclic 1H-indeno[1,2-b]pyridine-2(5H)-one analogs on the prophylaxis of contrast induced nephropathy
Male Wistar rats (150-200 g; Harlan Nossanr) were housed in a controlled environment and provided with standard rodent chow and water.
After 12 h of fasting, the animals received a single 60 mg/kg intravenous (i.v.) injection of streptozotocin (Sigma, St. Louis, Mo.) in 10 mM sodium citrate buffer, pH 4.5 (see figure showing CIN model). Control non-diabetic animals were fasted and received citrate buffer alone. After 24 h, animals with blood glucose levels greater than 250 mg/dl were considered diabetic. All experiments were performed 10 days following the induction of diabetes. The diabetic state was evaluated daily by determination of the blood glucose levels. Upon the induction of the diabetic state the animals were presenting with a major risk factor pre-disposing the animals to CIN after the administration of contrast media.
10 days following the induction of diabetes the rats were anesthetized with 90 mg/kg ketamine i.m. and 10 mg/kg xylazine i.m. and were treated with the contrast agent iomeprol (10 mL/kg injected via the lateral tail vein) or with 0.9% normal saline. The contrast agent used was the low osmolar non-ionic monomer iomeprol (lomeron, 400 mgI mL−1; Bracco SpA, Milan, Italy) with an osmolality of 726±34 mosmol/kg H2O.
Upon completion of surgical procedures, the animals were randomly allocated to different groups.
At the indicated time point blood samples were collected via the lateral tail vein into S1/3 tubes containing serum gel. The samples were centrifuged (6000 r.p.m. for 3 min) to separate plasma. All plasma samples were analyzed for biochemical parameters within 24 hours after collection. Plasma urea, plasma and urine concentrations of creatinine were measured as indicators of impaired glomerular function. Plasma concentrations of NGAL (neutrophil gelatinase associated lipocalin) levels and urine αGST (alpha glutathione S-transferase)and NGAL levels were evaluated.
At postmortem, a […] section of kidney was removed and placed in formalin and processed through to wax. […] sections were cut and stained with hematoxylin and eosin. Histologic assessment of outer medulla damage was examined by an experienced morphologist, who was not aware of the sample identity. The criteria for injury/necrosis were the following: 0=normal histology; 1=minor edema, minor cell swelling; 2=haemorrhage, moderate edema, moderate cells vacuolization and swelling; 3=moderate haemorrhage, moderate edema, moderate cells vacuolization, swelling and chromatin alteration; 4=severe edema, severe cells vacuolization, swelling and chromatin alteration, presence of necrosis spot; 5=severe edema, severe cells vacuolization, swelling and chromatin alteration, severe necrosis.

Where a name gives a salt, the structure may show the parent alone.

As for `O=c1[nH]c2c(c3c1CCCC3)Cc1c(CN3CC[C@H](F)C3)cccc1-2` [Example 17, (S)-10-((3-fluoropyrrolidin-1-yl)methyl)-3,4,6,11-tetrahydro-1H-indeno[1,2-c]isoquinolin-5(2H)-one mesylate], where the note is “outer medulla damage score 0-5, FIG. 4”, the kidney histological scores result is “reduced”. Further, the “level of plasma creatinine” value (relative to contrast agent alone, FIG. 1) is “reduces”. The “level of plasma NGAL” value (relative to contrast agent alone, FIG. 2) is “reduces”. Further, the “level of urine NGAL” value (relative to contrast agent alone, FIG. 3) is given as “reduces”. Also, where the note is “relative to contrast agent alone, FIG. 5”, the “level of urine GST” value was “reduces”.

These data come from patent publication US20100261706A1, “SUBSTITUTED TETRACYCLIC 1H-INDENO [1,2-B]PYRIDINE-2(5H)-ONE ANALOGS THEREOF AND USES THEREOF” (INOTEK PHARMACEUTICALS CORPORATION, priority 2008, published 2010).
